Data as given in patent US8455500B2, “3-hydroxy-5-arylisoxazole derivative” (Mochida Pharmaceutical Co., Ltd., priority 2009, dated 2013).

Each compound was assayed against T1, GPR40 of human origin (Homo sapiens, UniProt O14842) (assay: Agonist action on GPR40 of human origin (Ca2+ fluorescence in a CHO cell strain stably expressing GPR40)). Details: Ca2+ concentration fluctuation, fluorescence intensity.
T1 construct: expressed in transfected cells
Format: cell-based
Procedure: A CHO cell strain stably expressing GPR40 of human origin was used to determine the agonist action of a subject compound. This cell strain was seeded in a clear bottom 96 well plate at 4×10^4 cells/100 μL/well. The cell strain was cultured in a CO2 incubator overnight using a Ham's F-12 medium containing a 10% fetal bovine serum, 100 U/mL penicillin, 0.1 mg/mL streptomycin, and 400 μg/mL Geneticin. Calcium 4 Assay Kit (Molecular Devices) was used as a fluorescent calcium indicator. One mL of 77 mg/mL probenecid (Invitrogen) was added to 100 mL of a calcium indicator solution to prepare a solution (loading solution) mixed with a 20 mM HEPES-containing Hanks' balanced salt solution (HBSS) in equal proportions. 200 μL of the loading solution was added to the cells from which the culture solution was removed, and the cells were cultured in a CO2 incubator for 1 hour. The subject compound was diluted with a 20 mM HEPES-containing HBSS and was added to the cells by 50 μL, and the fluctuation of the Ca^2+ concentration was measured by an intracellular ion analyzer. The EC50 value of the subject compound was calculated using the dose-response curve of fluorescence intensity variation.

T1 sequence (O14842 whole entry): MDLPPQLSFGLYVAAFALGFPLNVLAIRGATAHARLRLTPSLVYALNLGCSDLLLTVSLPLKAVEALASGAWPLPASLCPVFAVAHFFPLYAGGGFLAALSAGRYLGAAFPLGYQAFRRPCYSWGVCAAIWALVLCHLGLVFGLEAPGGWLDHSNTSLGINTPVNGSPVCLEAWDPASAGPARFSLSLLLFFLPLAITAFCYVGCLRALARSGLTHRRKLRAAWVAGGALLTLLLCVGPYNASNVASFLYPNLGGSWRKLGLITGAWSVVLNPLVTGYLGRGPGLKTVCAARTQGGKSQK

| EC50 | SMILES |
| --- | --- |
| < 0.3 µM | Oc1cc(-c2ccc(OC3Cc4ccccc4C3)cc2)on1 [Example 2, 5-(4-(2,3-dihydro-1H-inden-2-yloxy)phenyl)isoxazol-3-ol] |
| < 0.3 µM | Oc1cc(-c2ccc(OC3CCc4c(Cl)cccc43)cc2)on1 (stereo not drawn) [Example 11, 5-(4-(4-chloro-2,3-dihydro-1H-inden-1-yloxy)phenyl)isoxazol-3-ol] |
| 0.3 to 3 µM | N#Cc1cccc2c1CCC2Oc1ccc(-c2cc(O)no2)cc1 (stereo not drawn) [Example 12, 5-(4-(4-cyano-2,3-dihydro-1H-inden-1-yloxy)phenyl)isoxazol-3-ol] |
| 0.3 to 3 µM | Oc1cc(-c2ccc(OC3CCc4cc(Cl)ccc43)cc2)on1 (stereo not drawn) [Example 13, 5-(4-(5-chloro-2,3-dihydro-1H-inden-1-yloxy)phenyl)isoxazol-3-ol] |
| 0.3 to 3 µM | Oc1cc(-c2ccc(OC3CCc4cc(Br)ccc43)cc2)on1 (stereo not drawn) [Example 14, 5-(4-(5-bromo-2,3-dihydro-1H-inden-1-yloxy)phenyl)isoxazol-3-ol] |
| 0.3 to 3 µM | Oc1cc(-c2ccc(OC3CCc4c3ccc(Cl)c4Cl)cc2)on1 (stereo not drawn) [Example 19, 5-(4-(4,5-dichloro-2,3-dihydro-1H-inden-1-yloxy)phenyl)isoxazol-3-ol] |
| < 0.3 µM | COc1cccc(-c2cccc3c2CCC3Oc2ccc(-c3cc(O)no3)cc2)c1 (stereo not drawn) [Example 21, 5-(4-(2,3-dihydro-4-(3-methoxyphenyl)-1H-inden-1-yloxy)phenyl)isoxazol-3-ol] |
| < 0.3 µM | COc1ncccc1-c1cccc2c1CCC2Oc1ccc(-c2cc(O)no2)cc1 (stereo not drawn) [Example 23, 5-(4-(2,3-dihydro-4-(2-methoxypyridin-3-yl)-1H-inden-1-yloxy)phenyl)isoxazol-3-ol] |
| < 0.3 µM | Oc1cc(-c2ccc(OC3CCc4c(Oc5ccccc5)cccc43)cc2)on1 (stereo not drawn) [Example 26, 5-(4-(2,3-dihydro-4-phenoxy-1H-inden-1-yloxy)phenyl)isoxazol-3-ol] |
| 0.3 to 3 µM | Oc1cc(-c2ccc(OC3CCc4c(OCc5ccccc5C(F)(F)F)cccc43)cc2)on1 (stereo not drawn) [Example 29, 5-(4-(2,3-dihydro-4-(2-(trifluoromethyl)benzyloxy)-1H-inden-1-yloxy)phenyl)isoxazol-3-ol] |
| < 0.3 µM | Oc1cc(-c2ccc(OC3CCc4c(Cc5ccccc5)cccc43)cc2)on1 (stereo not drawn) [Example 30, 5-(4-(4-benzyl-2,3-dihydro-1H-inden-1-yloxy)phenyl)isoxazol-3-ol] |
| 0.3 to 3 µM | Oc1cc(-c2ccc(NC3CCc4cc(Cl)ccc43)cc2)on1 (stereo not drawn) [Example 31, 5-(4-(5-chloro-2,3-dihydro-1H-inden-1-ylamino)phenyl)isoxazol-3-ol] |
| 0.3 to 3 µM | Oc1cc(-c2ccc(OC3CCc4c(-c5ccc6c(c5)OCCO6)cccc43)cc2)on1 (stereo not drawn) [Example 34, 5-(4-(2,3-dihydro-4-(1,4-benzodioxan-6-yl)-1H-inden-1-yloxy)phenyl)isoxazol-3-ol] |
| 0.3 to 3 µM | Oc1cc(-c2ccc(OC3CCc4c(-c5ccc6cc[nH]c6c5)cccc43)cc2)on1 (stereo not drawn) [Example 35, 5-(4-(2,3-dihydro-4-(1H-indol-6-yl)-1H-inden-1-yloxy)phenyl)isoxazol-3-ol] |
| < 0.3 µM | Cc1cc(OCCCS(C)(=O)=O)cc(C)c1-c1cccc(COc2ccc(-c3cc(O)no3)cc2)c1 [Example 42, 5-[4-[[3-[2,6-dimethyl-4-(3-methylsulfonylpropoxy)phenyl]phenyl]methoxy]phenyl]-1,2-oxazol-3-ol] |
| < 0.3 µM | Cc1cc(OCCCN2CCCC2=O)cc(C)c1-c1cccc(COc2ccc(-c3cc(O)no3)cc2)c1 [Example 43, 1-[3-[4-[3-[[4-(3-hydroxy-1,2-oxazol-5-yl)phenoxy]methyl]phenyl]-3,5-dimethylphenoxy]propyl]pyrrolidin-2-one] |
| < 0.3 µM | Cc1cc(OC[C@H](O)CO)cc(C)c1-c1cccc(COc2ccc(-c3cc(O)no3)cc2)c1C [Example 44, (2R)-3-[4-[3-[[4-(3-hydroxy-1,2-oxazol-5-yl)phenoxy]methyl]-2-methylphenyl]-3,5-dimethylphenoxy]propane-1,2-diol] |

| SMILES | EC50 |
| --- | --- |
| Cc1cc(OCCC(C)(C)O)nc(C)c1-c1cccc2c1CCC2Oc1ccc(-c2cc(O)no2)cc1 (stereo not drawn) [Example 24, 5-(4-(4-(6-(3-hydroxy-3-methylbutoxy)-2,4-dimethylpyridin-3-yl)-2,3-dihydro-1H-inden-1-yloxy)phenyl)isoxazol-3-ol] | < 0.3 µM |
| Cc1cc(OCC[C@@H](C)O)cc(C)c1-c1cccc2c1CCC2Oc1ccc(-c2cc(O)no2)cc1 (stereo partly drawn) [Example 36, 5-[4-[[4-[4-[(3R)-3-hydroxybutoxy]-2,6-dimethylphenyl]-2,3-dihydro-1H-inden-1-yl]oxy]phenyl]-1,2-oxazol-3-ol] | < 0.3 µM |
| Cc1cc(OCCC(C)(C)O)cc(C)c1-c1cccc2c1CCC2Oc1ccc(-c2cc(O)no2)cc1 (stereo not drawn) [Example 37, 5-[4-[[4-[4-(3-hydroxy-3-methylbutoxy)-2,6-dimethylphenyl]-2,3-dihydro-1H-inden-1-yl]oxy]phenyl]-1,2-oxazol-3-ol] | < 0.3 µM |
| Cc1cc(OCCC(C)(C)O)ncc1-c1cccc(COc2ccc(-c3cc(O)no3)cc2)c1C [Example 38, 5-(4-((3-(6-(3-hydroxy-3-methylbutoxy)-4-methylpyridin-3-yl)-2-methylphenyl)methoxy)phenyl)isoxazol-3-ol] | < 0.3 µM |
| Cc1nc(OCCC(C)(C)O)ccc1-c1cccc(COc2ccc(-c3cc(O)no3)cc2)c1C [Example 39, 5-(4-((3-(6-(3-hydroxy-3-methylbutoxy)-2-methylpyridin-3-yl)-2-methylphenyl)methoxy)phenyl)isoxazol-3-ol] | < 0.3 µM |
| Cc1cc(OCCC(C)(C)O)nc(C)c1-c1cccc(COc2ccc(-c3cc(O)no3)cc2)c1C [Example 40, 5-(4-((3-(2,4-dimethyl-6-(3-hydroxy-3-methylbutoxy)pyridin-3-yl)-2-methylphenyl)methoxy)phenyl)isoxazol-3-ol] | < 0.3 µM |
| Cc1cc(OCCC(C)(C)O)nc(C)c1-c1cccc(COc2ccc(-c3cc(O)no3)cc2)c1 [Example 41, 5-(4-((3-(2,4-dimethyl-6-(3-hydroxy-3-methylbutoxy)pyridin-3-yl)phenyl)methoxy)phenyl)isoxazol-3-ol] | < 0.3 µM |
| Cc1cc(OCCC(C)(C)O)cc(C)c1-c1cccc(COc2ccc(-c3cc(O)no3)cc2)c1C [Example 45, 5-[4-[[3-[4-(3-hydroxy-3-methylbutoxy)-2,6-dimethylphenyl]-2-methylphenyl]methoxy]phenyl]-1,2-oxazol-3-ol] | < 0.3 µM |
| Cc1c(COc2ccc(-c3cc(O)no3)cc2)cccc1-c1cnc(OCCC(C)(C)O)c(C)c1C [Example 46, 5-[4-[[3-[6-(3-hydroxy-3-methylbutoxy)-4,5-dimethylpyridin-3-yl]-2-methylphenyl]methoxy]phenyl]-1,2-oxazol-3-ol] | < 0.3 µM |
| Cc1cc(-c2cccc(COc3ccc(-c4cc(O)no4)cc3)c2C)c(C)nc1OCCC(C)(C)O [Example 47, 5-[4-[[3-[6-(3-hydroxy-3-methylbutoxy)-2,5-dimethylpyridin-3-yl]-2-methylphenyl]methoxy]phenyl]-1,2-oxazol-3-ol] | < 0.3 µM |
